The source of these data is paper PMC12020424, “Identification and Validation of Cyclic Peptides with Mucin-Selective, Location-Specific Binding in the Gastrointestinal Tract” (ACS Nano, 2025).

In one experiment the target is MUC5AC (Homo sapiens, UniProt P98088). Nature of the experiment: Phage ELISA on MUC5AC. The experiment is classed as binding. The settings on record: phage clones displaying the peptide, 10^7 PFU/μL, MUC5AC-coated plate, anti-M13/HRP, TMB, 450 nm, blank subtracted, three wells; vs random library and insertless phage. From the text: (§1) We next sought to validate the binding efficiency of these identified phage clones. We tested phage clones displaying peptides M2.1, M2.2, M2.3, and M2.4 for binding to MUC2, and phage clones displaying peptides M5.1, M5.2, M5.3, and M5.4 for binding to MUC5AC. We utilized a bacteriophage enzyme-linked immunosorbent assay to test the binding of the peptide hits to the specific target mucins, MUC2 and MUC5AC (Figure 2d). The spectrophotometer reported absorbance values at 450 nm. The intensity of the absorbance signal is proportional to the amount of peptide-mucin binding present in each sample. The negative controls (library samples and insertless samples) served as references for nonspecific binding.
(§2) First, mucin was coated onto the surface of a plastic plate overnight using the same process as that performed for the original phage display. The next morning, three wells of each phage clone were prepared, with each phage solution having a titer of 10^7 PFU/μL to ensure a fair comparison between the clones. […]
(§3) However, instead of eluting the bound phage, 100 μL of 1:2000 anti-M13/HRP mouse monoclonal antibody was added to each well, and the antibody was allowed to incubate with the wells for 30 min. […] The resulting solutions were analyzed by absorbance spectroscopy at a wavelength of 450 nm to determine the relative amount of phage present in each well.

For another experiment, the target named is MUC2 (Homo sapiens, UniProt Q02817). Description: Phage ELISA on MUC2. The experiment is classed as binding. The settings on record: phage clones displaying the peptide, 10^7 PFU/μL, MUC2-coated plate, anti-M13/HRP, TMB, 450 nm, blank subtracted, three wells; vs random library and insertless phage.
Description: as §1, §2, §3

The subject of experiment [1] is MUC2-containing intestinal tissue (jejunal). Nature of the experiment: Ex vivo fluorescent binding to small intestine tissue. The settings on record: MUC2-selective peptides to small intestine; for Overall nanoparticle “score”: scaled between free AF647 (0) and WGA-AF647 (1), mean across trials n = 3; for Selectivity: score for MUC2 tissue / sum of scores for all mucins, n = 3. The arrangement: species or system porcine. The text has this: After identifying the peptide hits for each mucin, we tested their binding in an ex vivo setting (Figure S1), evaluating their interaction with mucin-containing porcine tissue and semiquantitatively representing it through fluorescent imaging (Figure 3a). The cyclic peptides were synthesized and conjugated to a fluorophore, Alexa Fluor 647 (AF647), at the N-terminus to allow fluorescent imaging to be used to semiquantitatively measure the peptides’ ex vivo tissue binding, compared to free AF647 and AF647 conjugated to wheat germ agglutinin (WGA), a known lectin for glycoproteins.[40] […] Porcine GI tissue was used due to its similarity in mucin expression compared to human GI tissue and its capacity to source large surface areas of tissue for experiments.[41],[42] Representative IVIS images are shown in Figure 3b-e, where the first four columns represent the four identified peptides (M2.1–M2.4 in Figure 3b,c, M5.1–M5.4 in Figure 3d,e), the fifth column represents WGA-AF647, and the sixth column represents AF647. The “score” results for the peptide ligands are presented in Figure 3f,g for the mucins of interest, with Tables S2–S5 and Figure S3 detailing results for the other tissues (the equation for calculating the “score” is found in the Materials and Methodssection). […] We also examined selectivity by incubating peptides on nontarget tissues. Figure 3h,i depicts the “selectivity” results for the MUC2-selective and MUC5AC-selective peptides, respectively. Selectivity was calculated by determining the ratio of the “score” for a particular mucin to the sum of the “scores” for all mucins (see the Materials and Methods section for the equation used).
The top-performing hits from phage display were tested on ex vivo segments of porcine mucin-containing tissues (jejunal, stomach, and esophageal tissues) obtained from local abattoirs or laboratory-maintained pigs. Tissue was used either immediately after acquisition or after storage at −80 °C; tissue was used at most 1 week after acquisition and storage at −80 °C. After acquisition and equilibration to room temperature, the tissue was washed twice with 25 mL (each) of cold 1× PBS to remove undigested food and other debris. After washing and cleaning, the tissue was mounted between two magnetic plates with holes corresponding to a 48-well plate, as previously described,[72] such that the luminal side of the tissue was facing up (Figure S1). After the tissue was mounted, the amount of peptide/protein corresponding to 40 μg of AF647 was suspended in 200 μL of 1× PBS and added to the wells created by the magnetic plates. This was done 3× for each formulation to perform the experiment in triplicate. In addition, plain 1× PBS was added to one well to serve as the background measurement. After the peptides were added, the plate setup was covered with aluminum foil and allowed to incubate for 1 h at room temperature with gentle agitation (50 rpm). After incubation, the nonbinding peptides were removed by pouring out the solutions onto a clean paper towel, and the setup was washed three times by adding 200 μL of 1× PBS to each well and gently agitating the setup for 30 s before removing the washing solution. After washing was complete, fluorescence imaging was performed using an IVIS Spectrum fluorescent imaging system (PerkinElmer), with an automatically calculated exposure time (usually ∼1 s), a 20 cm × 20 cm field of view, and an excitation/emission of 640/680 nm, respectively. The imaging results were analyzed using Living Image software to calculate the total fluorescence intensity for each well, and the results for each hit or control were averaged across different wells. The negative control used was unconjugated AF647, while the positive control was WGA-AF647, since WGA is a known lectin that binds glycoproteins.
To better account for tissue-to-tissue variability, the results for each trial were reported as scores rather than using the raw fluorescence intensity. […]

Bridge positions count the residues as written; N and C are the ends. Ends that are not written are not given here.

Consider “CTDKASSSC (disulfide 1-9 (inferred)) [Peptide M5.1, CX7C cyclic peptide hit for MUC5AC]”, for which, at MUC5AC, the “phage ELISA binding vs negative controls” value is “significantly greater binding to MUC5AC than the random library and insertless phage”.
For the sequence “CTDKASSSC (disulfide 1-9 (inferred)) [Peptide M2.2, CX7C cyclic peptide hit for MUC2]”, the “phage ELISA absorbance vs negative controls” value at MUC2 is listed as “significantly higher absorbances than the two negative controls”. Also, in experiment [1], the “Overall nanoparticle “score”” value is recorded as 0.243 and the Selectivity is on record as 0.396.
In the case of “CAKHRIMLC (disulfide 1-9 (inferred)) [Peptide M2.1, CX7C cyclic peptide hit for MUC2; AF647 conjugated at N-terminus in ex vivo tests]”, at MUC2, the “phage ELISA absorbance vs negative controls” value is on record as “significantly higher absorbances than the two negative controls”. Also, in experiment [1], the “Overall nanoparticle “score”” value was determined as 0.550 and the Selectivity is on record as 0.298.
